Results as given in ChEMBL document CHEMBL4507281, “Data for DCP probe BI-4394” (2021).

Key:
[1] = target: Serine/threonine-protein kinase NLK (Homo sapiens) (UniProt Q9UBE8); conditions: Compound concentration 100.0 nM
[2] = tested on: Tyrosine-protein kinase ABL1 (Homo sapiens), P00519 [Q252H]; conditions: Compound concentration 100.0 nM
[3] = target: Serine/threonine-protein kinase WNK2 (Homo sapiens) (UniProt Q9Y3S1); conditions: Compound concentration 100.0 nM
[4] = target: Mitogen-activated protein kinase 12 (Homo sapiens) (UniProt P53778); conditions: Compound concentration 100.0 nM
[5] = target: Serine/threonine-protein kinase PLK4 (Homo sapiens) (UniProt O00444); conditions: Compound concentration 100.0 nM
[6] = target: Hormonally up-regulated neu tumor-associated kinase (Homo sapiens) (UniProt P57058); conditions: Compound concentration 100.0 nM
[7] = target: Histamine H3 receptor (Homo sapiens) (UniProt Q9Y5N1); conditions: Compound concentration 10.0 uM
[8] = tested on: Leucine-rich repeat serine/threonine-protein kinase 2 (Homo sapiens), Q5S007 [G2019S]; conditions: Compound concentration 100.0 nM
[9] = tested on: Phosphatidylinositol 4,5-bisphosphate 3-kinase catalytic subunit alpha isoform (Homo sapiens), P42336 [H1047Y]; conditions: Compound concentration 100.0 nM
[10] = target: T1, Tyrosine-protein kinase ZAP-70 (Homo sapiens) (UniProt P43403); conditions: Compound concentration 100.0 nM
T1 sequence (whole entry): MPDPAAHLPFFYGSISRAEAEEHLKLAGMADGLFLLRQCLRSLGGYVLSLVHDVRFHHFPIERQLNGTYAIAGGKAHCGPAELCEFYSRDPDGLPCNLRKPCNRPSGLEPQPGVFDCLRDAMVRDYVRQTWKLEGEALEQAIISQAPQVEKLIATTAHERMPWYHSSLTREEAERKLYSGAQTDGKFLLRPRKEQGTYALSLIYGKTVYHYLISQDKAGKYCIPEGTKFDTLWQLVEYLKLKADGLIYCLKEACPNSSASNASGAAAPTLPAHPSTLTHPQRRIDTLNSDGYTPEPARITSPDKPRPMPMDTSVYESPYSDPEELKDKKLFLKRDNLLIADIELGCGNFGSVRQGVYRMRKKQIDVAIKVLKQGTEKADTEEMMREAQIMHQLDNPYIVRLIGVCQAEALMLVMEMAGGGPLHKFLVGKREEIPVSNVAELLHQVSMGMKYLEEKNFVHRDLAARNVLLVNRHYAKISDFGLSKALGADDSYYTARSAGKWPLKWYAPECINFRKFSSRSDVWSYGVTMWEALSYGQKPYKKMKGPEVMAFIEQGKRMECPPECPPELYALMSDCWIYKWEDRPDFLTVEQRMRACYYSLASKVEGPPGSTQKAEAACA

[11] = target: Dual specificity protein kinase CLK3 (Homo sapiens) (UniProt P49761); conditions: Compound concentration 100.0 nM
[12] = tested on: Epidermal growth factor receptor (Homo sapiens), P00533 [UNDEFINED MUTATION]; conditions: Compound concentration 100.0 nM
Chain of Epidermal growth factor receptor (Homo sapiens), P00533 [UNDEFINED MUTATION] (P00533 whole entry, looked up, change not shown): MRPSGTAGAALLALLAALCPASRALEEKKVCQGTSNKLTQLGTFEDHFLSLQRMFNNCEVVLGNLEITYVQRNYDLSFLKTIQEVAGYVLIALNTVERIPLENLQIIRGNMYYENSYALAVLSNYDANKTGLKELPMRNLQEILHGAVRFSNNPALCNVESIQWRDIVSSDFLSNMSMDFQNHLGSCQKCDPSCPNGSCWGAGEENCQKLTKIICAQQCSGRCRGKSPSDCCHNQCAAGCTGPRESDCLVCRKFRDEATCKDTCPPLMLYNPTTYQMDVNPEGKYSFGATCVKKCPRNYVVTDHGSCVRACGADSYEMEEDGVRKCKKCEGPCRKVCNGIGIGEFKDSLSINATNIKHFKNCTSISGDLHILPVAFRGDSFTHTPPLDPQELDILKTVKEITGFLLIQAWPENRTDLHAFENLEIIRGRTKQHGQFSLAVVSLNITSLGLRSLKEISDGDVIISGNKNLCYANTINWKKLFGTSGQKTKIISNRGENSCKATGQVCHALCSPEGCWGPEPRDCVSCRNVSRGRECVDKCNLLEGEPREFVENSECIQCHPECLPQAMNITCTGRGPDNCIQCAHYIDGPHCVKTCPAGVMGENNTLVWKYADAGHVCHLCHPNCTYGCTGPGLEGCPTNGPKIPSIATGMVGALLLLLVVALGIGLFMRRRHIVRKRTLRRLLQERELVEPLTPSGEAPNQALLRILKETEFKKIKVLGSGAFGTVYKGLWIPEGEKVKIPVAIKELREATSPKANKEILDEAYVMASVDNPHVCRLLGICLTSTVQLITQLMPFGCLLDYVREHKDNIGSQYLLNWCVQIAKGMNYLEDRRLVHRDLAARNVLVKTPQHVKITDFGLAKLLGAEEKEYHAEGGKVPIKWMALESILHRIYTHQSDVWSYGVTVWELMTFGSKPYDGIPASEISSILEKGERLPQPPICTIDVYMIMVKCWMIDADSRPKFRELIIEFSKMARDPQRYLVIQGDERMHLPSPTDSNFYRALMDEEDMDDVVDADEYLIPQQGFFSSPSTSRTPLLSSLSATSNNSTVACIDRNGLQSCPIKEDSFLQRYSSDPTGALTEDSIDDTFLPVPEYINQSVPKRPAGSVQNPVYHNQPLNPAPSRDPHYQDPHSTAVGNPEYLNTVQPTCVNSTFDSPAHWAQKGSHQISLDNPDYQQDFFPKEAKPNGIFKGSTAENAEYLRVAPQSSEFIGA

[13] = target: Alpha-2C adrenergic receptor (Homo sapiens) (UniProt P18825); conditions: Compound concentration 10.0 uM
[14] = target: Tyrosine-protein kinase Tec (Homo sapiens) (UniProt P42680); conditions: Compound concentration 100.0 nM
[15] = target: Ephrin type-A receptor 7 (Homo sapiens) (UniProt Q15375); conditions: Compound concentration 100.0 nM
[16] = target: Dual specificity tyrosine-phosphorylation-regulated kinase 2 (Homo sapiens) (UniProt Q92630); conditions: Compound concentration 100.0 nM
[17] = target: High affinity nerve growth factor receptor (Homo sapiens) (UniProt P04629); conditions: Compound concentration 100.0 nM
[18] = target: Fibroblast growth factor receptor 1 (Homo sapiens) (UniProt P11362); conditions: Compound concentration 100.0 nM
[19] = target: Serine/threonine-protein kinase 17A (Homo sapiens) (UniProt Q9UEE5); conditions: Compound concentration 100.0 nM
[20] = tested on: Proto-oncogene tyrosine-protein kinase receptor Ret (Homo sapiens), P07949 [M918T]; conditions: Compound concentration 100.0 nM
Chain of Proto-oncogene tyrosine-protein kinase receptor Ret (Homo sapiens), P07949 [M918T] (P07949 whole entry M918T): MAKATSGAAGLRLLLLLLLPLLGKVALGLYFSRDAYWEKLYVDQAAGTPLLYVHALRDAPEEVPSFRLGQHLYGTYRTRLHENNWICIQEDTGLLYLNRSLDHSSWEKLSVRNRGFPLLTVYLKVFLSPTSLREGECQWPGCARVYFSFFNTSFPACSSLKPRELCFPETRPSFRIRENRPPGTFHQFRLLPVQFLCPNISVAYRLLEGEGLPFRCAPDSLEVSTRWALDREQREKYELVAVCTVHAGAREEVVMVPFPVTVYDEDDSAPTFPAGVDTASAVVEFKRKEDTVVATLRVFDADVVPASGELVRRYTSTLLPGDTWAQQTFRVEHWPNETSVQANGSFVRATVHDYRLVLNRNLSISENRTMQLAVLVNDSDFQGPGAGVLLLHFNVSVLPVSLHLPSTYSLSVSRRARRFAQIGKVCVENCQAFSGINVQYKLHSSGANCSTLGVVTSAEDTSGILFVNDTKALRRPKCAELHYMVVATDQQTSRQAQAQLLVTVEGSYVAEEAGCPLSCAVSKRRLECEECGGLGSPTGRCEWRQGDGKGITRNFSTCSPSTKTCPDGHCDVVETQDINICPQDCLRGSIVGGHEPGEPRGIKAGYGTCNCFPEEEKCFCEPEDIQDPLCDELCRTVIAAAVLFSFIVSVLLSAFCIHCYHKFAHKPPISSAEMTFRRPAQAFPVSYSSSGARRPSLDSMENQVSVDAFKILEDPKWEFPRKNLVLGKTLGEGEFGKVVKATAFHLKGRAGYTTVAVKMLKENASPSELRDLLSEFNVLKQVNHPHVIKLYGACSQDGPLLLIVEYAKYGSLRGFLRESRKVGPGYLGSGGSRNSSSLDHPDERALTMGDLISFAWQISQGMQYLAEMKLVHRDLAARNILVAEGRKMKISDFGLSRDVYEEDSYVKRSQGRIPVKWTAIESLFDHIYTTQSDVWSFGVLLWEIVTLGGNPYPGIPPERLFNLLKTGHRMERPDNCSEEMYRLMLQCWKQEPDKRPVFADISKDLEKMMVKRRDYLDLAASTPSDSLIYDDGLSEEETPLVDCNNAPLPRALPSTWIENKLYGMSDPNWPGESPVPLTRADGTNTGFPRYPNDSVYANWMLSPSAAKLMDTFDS

[21] = target: Dual specificity mitogen-activated protein kinase kinase 2 (Homo sapiens) (UniProt P36507); conditions: Compound concentration 100.0 nM
[22] = target: Mu-type opioid receptor (Homo sapiens) (UniProt P35372); conditions: Compound concentration 10.0 uM
[23] = target: Microtubule-associated serine/threonine-protein kinase 1 (Homo sapiens) (UniProt Q9Y2H9); conditions: Compound concentration 100.0 nM
Chain of Microtubule-associated serine/threonine-protein kinase 1 (Homo sapiens) (Q9Y2H9 whole entry, looked up): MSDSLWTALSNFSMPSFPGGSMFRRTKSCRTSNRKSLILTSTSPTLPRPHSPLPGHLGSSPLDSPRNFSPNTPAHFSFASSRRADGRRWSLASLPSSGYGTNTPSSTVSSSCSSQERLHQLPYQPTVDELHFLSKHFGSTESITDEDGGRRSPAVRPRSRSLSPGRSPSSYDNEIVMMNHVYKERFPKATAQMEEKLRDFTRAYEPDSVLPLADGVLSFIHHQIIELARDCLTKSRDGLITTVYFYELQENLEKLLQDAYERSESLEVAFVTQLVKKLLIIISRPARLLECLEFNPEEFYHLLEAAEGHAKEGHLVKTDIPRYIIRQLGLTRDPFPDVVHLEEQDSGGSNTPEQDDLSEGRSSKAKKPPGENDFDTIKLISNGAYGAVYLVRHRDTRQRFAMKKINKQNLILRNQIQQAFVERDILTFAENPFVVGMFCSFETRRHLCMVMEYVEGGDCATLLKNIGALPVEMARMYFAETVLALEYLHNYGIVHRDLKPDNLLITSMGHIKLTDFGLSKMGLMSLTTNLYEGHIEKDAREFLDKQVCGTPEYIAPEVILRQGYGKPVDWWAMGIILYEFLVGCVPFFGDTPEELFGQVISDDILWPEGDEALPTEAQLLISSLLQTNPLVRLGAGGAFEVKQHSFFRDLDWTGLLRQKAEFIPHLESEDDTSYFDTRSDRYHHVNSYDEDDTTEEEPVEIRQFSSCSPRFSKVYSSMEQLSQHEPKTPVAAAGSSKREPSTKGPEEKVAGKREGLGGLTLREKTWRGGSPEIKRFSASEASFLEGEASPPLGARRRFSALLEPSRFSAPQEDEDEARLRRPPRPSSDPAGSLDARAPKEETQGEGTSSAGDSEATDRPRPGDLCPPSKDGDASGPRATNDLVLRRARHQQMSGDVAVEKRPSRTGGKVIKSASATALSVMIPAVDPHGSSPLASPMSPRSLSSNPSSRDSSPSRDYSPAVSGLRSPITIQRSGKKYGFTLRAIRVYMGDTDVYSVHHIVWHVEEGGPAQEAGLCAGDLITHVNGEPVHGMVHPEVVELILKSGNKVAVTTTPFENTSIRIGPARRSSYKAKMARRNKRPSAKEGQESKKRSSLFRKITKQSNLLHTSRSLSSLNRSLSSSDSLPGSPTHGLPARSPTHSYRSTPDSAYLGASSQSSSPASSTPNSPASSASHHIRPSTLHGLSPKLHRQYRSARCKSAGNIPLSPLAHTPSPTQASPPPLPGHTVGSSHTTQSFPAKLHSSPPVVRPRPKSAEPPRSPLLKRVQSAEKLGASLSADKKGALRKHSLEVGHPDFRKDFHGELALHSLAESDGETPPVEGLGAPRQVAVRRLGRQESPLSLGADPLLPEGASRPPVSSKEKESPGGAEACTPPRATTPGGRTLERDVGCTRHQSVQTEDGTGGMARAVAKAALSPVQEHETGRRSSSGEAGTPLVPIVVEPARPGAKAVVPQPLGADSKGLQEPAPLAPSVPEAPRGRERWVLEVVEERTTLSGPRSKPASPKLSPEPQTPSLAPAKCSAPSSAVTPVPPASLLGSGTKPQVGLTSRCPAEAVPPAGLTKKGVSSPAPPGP

[24] = target: Serine/threonine-protein kinase TAO1 (Homo sapiens) (UniProt Q7L7X3); conditions: Compound concentration 100.0 nM
[25] = target: Serine/threonine-protein kinase MRCK beta (Homo sapiens) (UniProt Q9Y5S2); conditions: Compound concentration 100.0 nM
[26] = target: Ribosomal protein S6 kinase alpha-2 (Homo sapiens) (UniProt Q15349); conditions: Compound concentration 100.0 nM
[27] = target: ALK tyrosine kinase receptor (Homo sapiens) (UniProt Q9UM73); conditions: Compound concentration 100.0 nM
[28] = target: Membrane-associated tyrosine- and threonine-specific cdc2-inhibitory kinase (Homo sapiens) (UniProt Q99640); conditions: Compound concentration 100.0 nM
Chain of Membrane-associated tyrosine- and threonine-specific cdc2-inhibitory kinase (Homo sapiens) (Q99640 whole entry): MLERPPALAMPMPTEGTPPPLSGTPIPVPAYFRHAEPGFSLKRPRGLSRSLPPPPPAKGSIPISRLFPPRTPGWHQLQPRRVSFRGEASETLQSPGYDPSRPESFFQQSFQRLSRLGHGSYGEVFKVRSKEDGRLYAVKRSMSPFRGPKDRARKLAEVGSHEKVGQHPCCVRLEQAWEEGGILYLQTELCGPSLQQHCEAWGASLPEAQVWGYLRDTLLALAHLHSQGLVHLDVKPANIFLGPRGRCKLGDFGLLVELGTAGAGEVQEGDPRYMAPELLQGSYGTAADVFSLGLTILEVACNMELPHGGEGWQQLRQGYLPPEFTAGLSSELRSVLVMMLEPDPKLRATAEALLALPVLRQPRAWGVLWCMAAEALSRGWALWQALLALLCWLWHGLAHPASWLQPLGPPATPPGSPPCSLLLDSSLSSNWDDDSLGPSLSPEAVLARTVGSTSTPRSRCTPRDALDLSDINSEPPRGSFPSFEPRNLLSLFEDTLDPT

[29] = target: Cyclin-dependent kinase-like 3 (Homo sapiens) (UniProt Q8IVW4); conditions: Compound concentration 100.0 nM
[30] = tested on: Epidermal growth factor receptor (Homo sapiens), P00533 [UNDEFINED MUTATION]; conditions: Compound concentration 100.0 nM; remark: listed apart in the source
[31] = target: Mitogen-activated protein kinase 11 (Homo sapiens) (UniProt Q15759); conditions: Compound concentration 100.0 nM
[32] = target: Serine/threonine-protein kinase 32A (Homo sapiens) (UniProt Q8WU08); conditions: Compound concentration 100.0 nM
[33] = target: Tyrosine-protein kinase Blk (Homo sapiens) (UniProt P51451); conditions: Compound concentration 100.0 nM
[34] = target: Cyclin-dependent kinase 2 (Homo sapiens) (UniProt P24941); conditions: Compound concentration 100.0 nM
[35] = target: Calcium/calmodulin-dependent protein kinase type II subunit alpha (Homo sapiens) (UniProt Q9UQM7); conditions: Compound concentration 100.0 nM
[36] = target: Serine/threonine-protein kinase 38 (Homo sapiens) (UniProt Q15208); conditions: Compound concentration 100.0 nM

Chain of Serine/threonine-protein kinase NLK (Homo sapiens) (Q9UBE8 whole entry): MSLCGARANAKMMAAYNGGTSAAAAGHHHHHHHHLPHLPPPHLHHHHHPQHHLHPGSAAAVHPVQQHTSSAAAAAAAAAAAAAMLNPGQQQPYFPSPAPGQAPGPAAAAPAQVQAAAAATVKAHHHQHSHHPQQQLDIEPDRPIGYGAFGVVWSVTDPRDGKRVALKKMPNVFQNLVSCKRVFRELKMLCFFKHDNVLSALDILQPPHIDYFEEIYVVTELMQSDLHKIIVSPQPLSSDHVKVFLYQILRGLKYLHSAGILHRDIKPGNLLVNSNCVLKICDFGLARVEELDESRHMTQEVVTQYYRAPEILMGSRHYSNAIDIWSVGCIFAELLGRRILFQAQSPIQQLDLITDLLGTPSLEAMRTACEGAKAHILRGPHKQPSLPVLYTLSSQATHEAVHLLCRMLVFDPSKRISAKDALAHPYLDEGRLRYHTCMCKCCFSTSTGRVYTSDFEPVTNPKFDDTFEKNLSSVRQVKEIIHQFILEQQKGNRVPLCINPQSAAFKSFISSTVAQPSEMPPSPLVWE

Row | SMILES | residual activity [1] [%] | residual activity [2] [%] | residual activity [3] [%] | residual activity [4] [%] | residual activity [5] [%] | residual activity [6] [%] | inhibition [7] [%] | residual activity [8] [%] | residual activity [9] [%] | residual activity [10] [%] | residual activity [11] [%] | residual activity [12] [%] | inhibition [13] [%] | residual activity [14] [%] | residual activity [15] [%] | residual activity [16] [%] | residual activity [17] [%] | residual activity [18] [%] | residual activity [19] [%] | residual activity [20] [%] | also measured
1 | CCOC(=O)c1cc2cc(-c3cc(C(=O)NCc4ccc(C(=O)O)cc4)nn3C)ccc2[nH]1 [BI 4394] | 86 | 92 | 85 | 77 | 82 | 100 | 8.18 | 83 | 77 | 98 | 83 | 100 | -7.04 | 99 | 97 | 76 | 89 | 86 | 97 | 100 | residual activity [21]: 83%; inhibition [22]: 0.37%; residual activity [23]: 87%; residual activity [24]: 90%; residual activity [25]: 88%; residual activity [26]: 84%; residual activity [27]: 98%; residual activity [28]: 100%; residual activity [29]: 0%; residual activity [30]: 100%; residual activity [31]: 98%; residual activity [32]: 75%; residual activity [33]: 99%; residual activity [34]: 90%; residual activity [35]: 76%; residual activity [36]: 95%
2 | Cn1nc(C(=O)NCc2ccc(C(=O)O)cc2)cc1-c1ccc2[nH]ccc2c1 [BI 4395] | 100 | 71 | 70 | 90 | 61 | 65 | -4.12 | 70 | 100 | 82 | 95 | 94 | -7.92 | 89 | 82 | 100 | 74 | 84 | 92 | 49 | residual activity [21]: 85%; inhibition [22]: 2.9%; residual activity [23]: 100%; residual activity [24]: 91%; residual activity [25]: 100%; residual activity [26]: 98%; residual activity [27]: 80%; residual activity [28]: 93%; residual activity [29]: 100%; residual activity [30]: 100%; residual activity [31]: 86%; residual activity [32]: 92%; residual activity [33]: 100%; residual activity [34]: 91%; residual activity [35]: 79%; residual activity [36]: 92%
